{"source": "ChEMBL document CHEMBL3124916", "about": "“On the histone lysine methyltransferase activity of fungal metabolite chaetocin” (J Med Chem, 2013)", "key": {"[1]": {"target": "T1, Histone-lysine N-methyltransferase EHMT2 (Homo sapiens) (UniProt Q96KQ7)", "T1 sequence (whole entry)": "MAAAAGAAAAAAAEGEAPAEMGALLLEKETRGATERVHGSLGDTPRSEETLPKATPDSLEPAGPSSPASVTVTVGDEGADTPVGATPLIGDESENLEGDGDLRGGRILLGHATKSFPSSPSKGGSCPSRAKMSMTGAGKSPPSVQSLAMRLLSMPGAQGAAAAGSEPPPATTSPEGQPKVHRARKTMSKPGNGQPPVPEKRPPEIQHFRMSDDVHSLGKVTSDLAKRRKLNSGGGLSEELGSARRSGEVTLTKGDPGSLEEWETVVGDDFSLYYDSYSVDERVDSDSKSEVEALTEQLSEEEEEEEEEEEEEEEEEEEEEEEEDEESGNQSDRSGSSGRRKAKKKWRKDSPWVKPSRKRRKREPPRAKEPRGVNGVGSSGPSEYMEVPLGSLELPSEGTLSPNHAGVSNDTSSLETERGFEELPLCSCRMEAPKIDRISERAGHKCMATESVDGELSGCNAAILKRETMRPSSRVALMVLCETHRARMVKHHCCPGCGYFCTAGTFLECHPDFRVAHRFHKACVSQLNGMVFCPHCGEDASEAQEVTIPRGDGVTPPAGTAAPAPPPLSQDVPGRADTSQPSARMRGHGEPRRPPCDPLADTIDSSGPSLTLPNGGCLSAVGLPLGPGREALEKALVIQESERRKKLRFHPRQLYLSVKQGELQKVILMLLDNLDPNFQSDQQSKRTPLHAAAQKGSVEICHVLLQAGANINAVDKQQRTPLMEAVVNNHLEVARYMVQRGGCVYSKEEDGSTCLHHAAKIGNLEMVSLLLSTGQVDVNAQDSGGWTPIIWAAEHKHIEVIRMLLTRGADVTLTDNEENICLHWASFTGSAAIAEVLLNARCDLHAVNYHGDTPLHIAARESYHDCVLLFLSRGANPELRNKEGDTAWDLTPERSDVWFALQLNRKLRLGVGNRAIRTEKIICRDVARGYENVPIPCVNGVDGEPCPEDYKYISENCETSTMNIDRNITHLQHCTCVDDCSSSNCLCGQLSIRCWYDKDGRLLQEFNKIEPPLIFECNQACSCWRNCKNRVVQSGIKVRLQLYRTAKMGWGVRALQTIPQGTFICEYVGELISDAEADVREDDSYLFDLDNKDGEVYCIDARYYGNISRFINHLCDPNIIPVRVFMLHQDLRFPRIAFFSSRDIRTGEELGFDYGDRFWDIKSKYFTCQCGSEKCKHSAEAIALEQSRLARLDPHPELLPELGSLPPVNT", "experiment": "Inhibition of N-terminal GST-tagged recombinant human Histone-lysine N-methyltransferase G9a using S-(5'-adenosyl)-L-methionine chloride as substrate assessed as nonspecific denaturation of enzyme at 0.05 to 25 uM preincubated for 30 mins in presence of urea and DTT"}, "[2]": {"target": "T2, Histone-lysine N-methyltransferase EHMT2 (Homo sapiens, UniProt Q96KQ7)", "T2 sequence (Q96KQ7 whole entry)": "T1 sequence (whole entry)", "experiment": "Inhibition of N-terminal GST-tagged recombinant human Histone-lysine N-methyltransferase G9a using S-(5'-adenosyl)-L-methionine chloride as substrate after 30 mins"}, "[3]": {"target": "T1, Histone-lysine N-methyltransferase EHMT2 (Homo sapiens)", "experiment": "Inhibition of N-terminal GST-tagged recombinant human Histone-lysine N-methyltransferase G9a using S-(5'-adenosyl)-L-methionine chloride as substrate assessed as residual activity at 25 uM after 30 mins; values are per cent of control"}, "[4]": {"target": "T1, Histone-lysine N-methyltransferase EHMT2 (Homo sapiens)", "experiment": "Reversible inhibition of N-terminal GST-tagged recombinant human Histone-lysine N-methyltransferase G9a using S-(5'-adenosyl)-L-methionine chloride as substrate assessed as enzyme recovery at 10 fold IC50 preincubated for 30 mins followed by 100 fold dilution in presence of DTT"}, "[5]": {"target": "T2, Histone-lysine N-methyltransferase EHMT2", "description": "Competitive inhibition of N-terminal GST-tagged recombinant human Histone-lysine N-methyltransferase G9a using S-(5'-adenosyl)-L-methionine chloride as substrate preincubated for 30 mins followed by substrate addition measured after 30 mins"}, "[6]": {"experiment": "Induction of H2O2 generation in HBSS/Phenol Red buffer at 10 to 100 uM preincubated for 15 mins by HRP assay in presence of DTT", "type": "physicochemical", "conditions": "0.25 h"}, "[7]": {"experiment": "Inhibition of Neurospora crassa Histone H3-K9 methyltransferase dim-5"}}, "note": "The source made the active and inactive calls. The calls are words filed in the database; no cut-off is given here.", "data": [{"smiles": "Nc1ncnc2c1ncn2[C@@H]1O[C@H](CSCC[C@H](N)C(=O)O)[C@@H](O)[C@H]1O", "values": [{"measurement": "inhibition", "setting": "[1]", "value": "inactive"}]}, {"smiles": "CN1C(=O)[C@@]23C[C@]4([C@]56C[C@@]78S[C@@](CO)(C(=O)N7[C@H]5Nc5ccccc56)N(C)C8=O)c5ccccc5N[C@@H]4N2C(=O)[C@]1(CO)S3", "values": [{"measurement": "IC50", "setting": "[2]", "value": 10.6, "unit": "µM"}, {"measurement": "residual activity", "setting": "[3]", "value": 36, "unit": "%"}]}, {"smiles": "O=C1[C@@H]2SS[C@@H](C(=O)N2Cc2ccccc2)N1Cc1ccccc1", "values": [{"measurement": "IC50", "setting": "[2]", "value": 4.9, "unit": "µM"}, {"measurement": "residual activity", "setting": "[3]", "value": 19, "unit": "%"}, {"measurement": "inhibition", "setting": "[4]", "value": "Active"}, {"measurement": "IC50", "setting": "[5]", "value": 5.11, "unit": "µM"}]}, {"smiles": "CN1C(=O)[C@@]23C[C@]4([C@]56C[C@@]78SS[C@@](CO)(C(=O)N7[C@H]5Nc5ccccc56)N(C)C8=O)c5ccccc5N[C@@H]4N2C(=O)[C@]1(CO)SS3", "note": "[CHAETOCIN]", "values": [{"measurement": "IC50", "setting": "[2]", "value": 2.6, "unit": "µM"}, {"measurement": "Activity", "setting": "[6]", "value": "Not Active"}, {"measurement": "residual activity", "setting": "[3]", "value": 8, "unit": "%"}, {"measurement": "inhibition", "setting": "[1]", "value": "Active"}, {"measurement": "IC50", "setting": "[7]", "value": 3, "unit": "µM"}, {"measurement": "inhibition", "setting": "[4]", "value": "Active"}]}]}
